Values joined by “and” are separate entries in the source; they are usually repeats but may differ in a detail not shown here. Equal entries are not always repeated. Records with an inconclusive call do not appear.
System: BDF1 mice, M5076 sarcoma s.c., survival/tumor T/C
Assay: NCI In Vivo Anticancer Drug Screen. Data for tumor model Sarcoma M5076 (subcutaneous) in B6D2F1 (BDF1) mice
Method: The antitumor activity of compounds was measured in mice bearing transplantable tumors. Survival or tumor size were measured and the results are expressed as the measurement made in the treated group (T) divided by the measurement made in the vehicle treated control group (C). The tumor model used in this assay is Sarcoma M5076 (subcutaneous) in B6D2F1 (BDF1) mice

Q: For `NC(C/[N+]([O-])=N/O)C(=O)O` (stereo not given), which T/C (endpoint: mean tumor weight, dose: 62.5 mg/kg/injection, schedule: Q02DX011 (ip), vehicle: saline, higher = larger tumour) is on record?
A: The T/C was 88 % of control.

Q: What about the T/C (endpoint: mean tumor weight, dose: 125.0 mg/kg/injection, schedule: Q02DX011 (ip), vehicle: saline, higher = larger tumour) of the same compound?
A: Its T/C is 108 % of control.

Q: And the T/C (endpoint: mean tumor weight, dose: 250.0 mg/kg/injection, schedule: Q02DX011 (ip), vehicle: saline, higher = larger tumour)?
A: The T/C was 42 % of control.

Q: And the T/C (endpoint: median survival time, dose: 8.78 mg/kg/injection, schedule: Q01DX010 (ip), vehicle: alkali diluted with saline, higher = longer survival)?
A: The T/C was 88 % of control and 90 % of control.

Q: What about the T/C (endpoint: median survival time, dose: 13.2 mg/kg/injection, schedule: Q01DX010 (ip), vehicle: alkali diluted with saline, higher = longer survival) of the same compound?
A: The T/C was 91 % of control and 93 % of control.

Q: And the T/C (endpoint: median survival time, dose: 19.8 mg/kg/injection, schedule: Q01DX010 (ip), vehicle: alkali diluted with saline, higher = longer survival)?
A: The T/C was 118 % of control.

Q: What about the T/C (endpoint: median survival time, dose: 29.6 mg/kg/injection, schedule: Q01DX010 (ip), vehicle: alkali diluted with saline, higher = longer survival) of the same compound?
A: The T/C was 114 % of control and 118 % of control.

Q: And the T/C (endpoint: median survival time, dose: 44.4 mg/kg/injection, schedule: Q01DX010 (ip), vehicle: alkali diluted with saline, higher = longer survival)?
A: The T/C was 105 % of control and 106 % of control.

Q: What about the T/C (endpoint: median survival time, dose: 52.7 mg/kg/injection, schedule: Q04DX005 (ip), vehicle: alkali diluted with saline, higher = longer survival) of the same compound?
A: Its T/C is 89 % of control and 90 % of control.

Q: And the T/C (endpoint: median survival time, dose: 66.7 mg/kg/injection, schedule: Q01DX010 (ip), vehicle: alkali diluted with saline, higher = longer survival)?
A: The T/C was 115 % of control and 116 % of control.

Q: What about the T/C (endpoint: median survival time, dose: 79.0 mg/kg/injection, schedule: Q04DX005 (ip), vehicle: alkali diluted with saline, higher = longer survival) of the same compound?
A: Its T/C is 93 % of control.

Q: What about the T/C (endpoint: median survival time, dose: 119.0 mg/kg/injection, schedule: Q04DX005 (ip), vehicle: alkali diluted with saline, higher = longer survival) of the same compound?
A: The T/C was 123 % of control.

Q: And the T/C (endpoint: median survival time, dose: 267.0 mg/kg/injection, schedule: Q04DX005 (ip), vehicle: alkali diluted with saline, higher = longer survival)?
A: Its T/C is 106 % of control and 112 % of control.

Q: And the T/C (endpoint: median survival time, dose: 400.0 mg/kg/injection, schedule: Q04DX005 (ip), vehicle: alkali diluted with saline, higher = longer survival)?
A: The T/C was 115 % of control.

Q: And the T/C (endpoint: median tumor weight (est.), dose: 50.0 mg/kg/injection, schedule: Q02DX011 (ip), vehicle: alkali diluted with saline, higher = larger tumour)?
A: The T/C was 91 % of control.

Q: And the T/C (endpoint: median tumor weight (est.), dose: 100.0 mg/kg/injection, schedule: Q02DX011 (ip), vehicle: alkali diluted with saline, higher = larger tumour)?
A: The T/C was 66 % of control.

Q: Which T/C (endpoint: median survival time, dose: 4.0 mg/kg/injection, schedule: Q01DX009 (ip), vehicle: saline with Tween-80, higher = longer survival) does the source give for `Cc1[nH]c(=O)[nH]c(=O)c1N(CCF)CCCl` here?
A: The T/C was 104 % of control.

Q: And the T/C (endpoint: median survival time, dose: 8.0 mg/kg/injection, schedule: Q01DX009 (ip), vehicle: saline with Tween-80, higher = longer survival)?
A: The T/C was 120 % of control.

Q: And the T/C (endpoint: median tumor weight (est.), dose: 4.0 mg/kg/injection, schedule: Q01DX009 (ip), vehicle: saline with Tween-80, higher = larger tumour)?
A: Its T/C is 101 % of control.

Q: What about the T/C (endpoint: median tumor weight (est.), dose: 8.0 mg/kg/injection, schedule: Q01DX009 (ip), vehicle: saline with Tween-80, higher = larger tumour) of the same compound?
A: The T/C was 47 % of control and 57 % of control.

Q: And the T/C (endpoint: median tumor weight (est.), dose: 16.0 mg/kg/injection, schedule: Q01DX009 (ip), vehicle: saline with Tween-80, higher = larger tumour)?
A: Its T/C is 8 % of control and 17 % of control.

Q: What does the source list for `O=c1[nH]c(=O)n(C2CC(O)C(CO)O2)cc1F` (stereo not given)?
A: T/C (endpoint: mean tumor weight, dose: 20.0 mg/kg/injection, schedule: Q02DX011 (ip), vehicle: Klucel (hydroxypropylcellulose) (HPC), higher = larger tumour): 66 % of control; T/C (endpoint: mean tumor weight, dose: 40.0 mg/kg/injection, schedule: Q02DX011 (ip), vehicle: Klucel (hydroxypropylcellulose) (HPC), higher = larger tumour): 49 % of control; T/C (endpoint: mean tumor weight, dose: 80.0 mg/kg/injection, schedule: Q02DX011 (ip), vehicle: Klucel (hydroxypropylcellulose) (HPC), higher = larger tumour): 13 % of control; T/C (endpoint: median tumor weight (est.), dose: 20.0 mg/kg/injection, schedule: Q02DX011 (ip), vehicle: Klucel (hydroxypropylcellulose) (HPC), higher = larger tumour): 62 % of control; T/C (endpoint: median tumor weight (est.), dose: 40.0 mg/kg/injection, schedule: Q02DX011 (ip), vehicle: Klucel (hydroxypropylcellulose) (HPC), higher = larger tumour): 46 % of control and 70 % of control; T/C (endpoint: median tumor weight (est.), dose: 160.0 mg/kg/injection, schedule: Q02DX011 (ip), vehicle: Klucel (hydroxypropylcellulose) (HPC), higher = larger tumour): 23 % of control

Q: With `CSC1SCC2C(=O)N(C)C(C(C)C)C(=O)OCC(NC(=O)c3cnc4ccccc4n3)C(=O)NC(C)C(=O)N(C)C1C(=O)N(C)C(C(C)C)C(=O)OCC(NC(=O)c1cnc3ccccc3n1)C(=O)NC(C)C(=O)N2C` (stereo not given) as the compound, how does the T/C (endpoint: median survival time, dose: 0.06 mg/kg/injection, schedule: Q04DX003 (ip), vehicle: saline with Tween-80, higher = longer survival) read?
A: The T/C was 96 % of control.

Q: What about the T/C (endpoint: median survival time, dose: 0.12 mg/kg/injection, schedule: Q04DX003 (ip), vehicle: saline with Tween-80, higher = longer survival) of the same compound?
A: Its T/C is 91 % of control.

Q: For `CC[C@](O)(C(=O)O)c1cc2n(c(=O)c1CO)Cc1cc3ccccc3nc1-2`, which T/C (endpoint: mean tumor weight, dose: 1.13 mg/kg/injection, schedule: Q02DX011 (ip), vehicle: saline, higher = larger tumour) is on record?
A: Its T/C is 95 % of control.

Q: What about the T/C (endpoint: mean tumor weight, dose: 2.25 mg/kg/injection, schedule: Q02DX011 (ip), vehicle: saline, higher = larger tumour) of the same compound?
A: The T/C was 61 % of control.

Q: What about the T/C (endpoint: mean tumor weight, dose: 4.5 mg/kg/injection, schedule: Q02DX011 (ip), vehicle: saline, higher = larger tumour) of the same compound?
A: Its T/C is 25 % of control.

Q: And the T/C (endpoint: median tumor weight (est.), dose: 1.13 mg/kg/injection, schedule: Q02DX011 (ip), vehicle: saline, higher = larger tumour)?
A: Its T/C is 97 % of control.

Q: What about the T/C (endpoint: median tumor weight (est.), dose: 2.25 mg/kg/injection, schedule: Q02DX011 (ip), vehicle: saline, higher = larger tumour) of the same compound?
A: Its T/C is 96 % of control.

Q: What about the T/C (endpoint: median tumor weight (est.), dose: 4.5 mg/kg/injection, schedule: Q02DX011 (ip), vehicle: saline, higher = larger tumour) of the same compound?
A: Its T/C is 44 % of control.
